Marks after values point to notes of the source that are not given here.
Tests used:
[1] = Phase I drug-drug interaction PK, Group 2: THC/CBD spray alone or with ketoconazole, plasma by GC-MS; settings: for AUC(0-inf) / AUC(0-t) / Cmax / Kel / t½ / Tmax: plasma; for AUC(0-inf) / AUC(0-t) / Cmax / Kel / t½: mean (SD); for Tmax: median (range)
Method: (§1) Subjects received rifampicin on Days 1-9. […] Subjects received ketoconazole on Days 1-4.
(§2) Blood samples were collected at specified times and stored on ice (except rifampicin PK samples which were stored in iced water) prior to processing and storage. Plasma samples were separated by centrifugation (approximately 2500 rpm × 15 minutes at 4°C). Samples were stored in 4 mL amber glass screw top glass vials with PTFE lined screw caps labelled with Guys Drug Research (Quintiles Limited) labels. The aliquots were stored in clearly labelled containers in a freezer set at or below -20°C, until shipped for assay. Samples were shipped on dry ice at the appropriate time-points.
(§3) The assay validation was undertaken by Advanced Bioanalytical Service Laboratories (London, UK), who developed the technique after reviewing the literature, which was based on the methodology adopted by three different groups (Foltz et al. [1983]; Goodall & Basteyns [1995]; Kemp et al. [1995]), and designed with reference to FDA guidelines for industry (FDA Guidance for Industry [2012]). The method utilised protein precipitation, solvent extraction and derivatisation for the sample preparation and then sample analysis by capillary gas chromatography and detection by a mass spectrometer (GC-MS). The validation procedure investigated the calibration model with the best regression fit over the concentration range 0.1 - 100 ng/mL for CBD, THC and 11-OH-THC, as well as precision and accuracy of the method, stability, carry-over, and specificity.
(§4) Human plasma from healthy volunteers was used to prepare the standards and quality control (QC) samples, with analytes extracted using hexane/ethyl acetate (7:1 ratio), derivatised with N,O-Bis(trimethylsilyl)trifluoroacetamide. Analytic grade THC (Sigma, UK), CBD (Sigma, UK) and 11-OH-THC (Radian International and Cerillant, UK) were obtained, and three sets of CBD, THC and 11-OH-THC were used to support the study. Deuterated THC-d3 (Sigma, UK) was used as the internal standard. The GC-MS equipment was a Hewlett Packard 6890 Gas Chromatograph attached to a Hewlett Packard 5973 Mass Selective Detector. Data handling was carried out using an MS Chemstation System and the peak area ratio of the analytes to the internal standard was calculated in Excel (2000). The concentrations were calculated from the ratio data using least squares ln(y) on ln(x) regression performed in Excel (2000), and were then checked manually. Regression analysis was undertaken to find the regression model that best described the calibration data (for details, see ([Miller & Miller 1992])).
(§5) A 0.5 mL aliquot of test sample, QC or blank plasma was placed into a test tube. The blank plasma was spiked with 50 μL of the appropriate standard solution to produce the calibration standards. 50 μL of the internal standard was added to each test tube. The samples were then diluted by the addition of 500 μL of 0.1% (w/v) ascorbic acid and the protein precipitated by the addition of 1.0 mL of acetonitrile. The proteins were removed by centrifugation and the supernatant concentrated to 1 mL using nitrogen at 50 °C. The samples were then basified by the addition of 300 μL of 5M sodium hydroxide and the analytes extracted by the addition of 2.0 mL of 7:1 hexane:ethyl acetate. After mixing for 16 minutes the tubes were centrifuged and the top layer transferred into clean 3 dram vials. The solvent was removed using nitrogen at 70 °C and the dried extract resuspended in 100 μL of BSTFA and transferred to microvials, capped and placed at 70 °C for 30 minutes to derivatise the analytes. The microvials were then cooled and loaded onto the autosampler tray for analysis where 1 μL was injected onto the GC-MS system.

[2] = Phase I drug-drug interaction PK, Group 1: THC/CBD spray alone or with rifampicin, plasma by GC-MS; settings: for AUC(0-inf) / AUC(0-t) / Cmax / Kel / t½ / Tmax: n = 12, plasma; for AUC(0-inf) / AUC(0-t) / Cmax / Kel / t½: mean (SD); for Tmax: median (range)
Method: as §1, §2, §3, §4, §5

[3] = Phase I drug-drug interaction PK, Group 3: THC/CBD spray alone or with omeprazole, plasma by GC-MS; settings: for AUC(0-inf) / AUC(0-t) / Cmax / Kel / t½ / Tmax: n = 12, plasma; for AUC(0-inf) / AUC(0-t) / Cmax / Kel / t½: mean (SD); for Tmax: median (range); for Cmax and AUC % Co-efficient of Variation (CV%) range: inter-subject variability
Method: as §1, §2, §3, §4, §5

[4] = Ketoconazole and THC/CBD spray vs THC/CBD spray alone, no-interaction range 0.80 to 1.25
[5] = THC/CBD spray 4 sprays and ketoconazole 400 mg at end of 5-day dosing period, n = 11
[6] = THC/CBD spray alone, single dose 4 sprays (10.8/10 mg), ketoconazole group, n = 12
[7] = THC/CBD spray co-administered with ketoconazole vs alone
[8] = Rifampicin and THC/CBD spray vs THC/CBD spray alone, no-interaction range 0.80 to 1.25
[9] = THC/CBD spray 4 sprays and rifampicin 600 mg after repeated daily dosing
[10] = THC/CBD spray alone, single dose 4 sprays (10.8/10 mg), rifampicin group
[11] = THC/CBD spray co-administered with rifampicin vs alone
[12] = Omeprazole and THC/CBD spray vs THC/CBD spray alone, no-interaction range 0.80 to 1.25
[13] = THC/CBD spray 4 sprays and omeprazole 40 mg at end of 6-day dosing period
[14] = THC/CBD spray alone, single dose 4 sprays (10.8/10 mg), omeprazole group
[15] = THC/CBD spray co-administered with omeprazole vs alone

For 11-hydroxy-THC [11-OH-THC], the “Geometric mean ratio of AUC(0-inf), point estimate” value (from here on “Geometric mean ratio of AUC(0-inf)”) [1, 4] was 3.616, the “Geometric mean ratio of AUC(0-t), point estimate” value (shortened to “Geometric mean ratio of AUC(0-t)”) [1, 4] was 3.823 and the “Geometric mean ratio of Cmax, point estimate” value (from here on “Geometric mean ratio of Cmax”) [1, 4] was 3.074. For the same substance, the “AUC(0-inf)” value [1, 5] was 95.26 (48.93) h*ng/mL, the “AUC(0-t)” value [1, 5] was 84.34 (40.18) h*ng/mL and the Cmax [1, 5] was 10.92 (3.83) ng/mL. The Kel [1, 5] was 0.095 (0.016) h^-1, the t½ [1, 5] was 7.48 (1.39) h and the Tmax [1, 5] was 2.25 (1.50-4.13) h. The “AUC(0-inf)” value [1, 6] was 27.13 (13.34)^d h*ng/mL, the “AUC(0-t)” value [1, 6] was 21.78 (11.34) h*ng/mL and the Cmax [1, 6] was 3.59 (1.67) ng/mL. For the same substance, the Kel [1, 6] was 0.076 (0.014)^d h^-1, the t½ [1, 6] was 9.51 (2.18)^d h and the Tmax [1, 6] was 1.50 (1.00-6.00) h. For the same substance, the “% change in mean Tmax” value [1, 7] was “+50%”, the “% change in t1/2” value [1, 7] was -21% and the “Change in mean Cmax” value ([1]; THC/CBD spray with ketoconazole vs THC/CBD spray alone) was “+204%”. The “Substrate for the isoenzyme CYP3A4 (conclusion from ketoconazole interaction)” value ([1]; suggested by increased exposure with ketoconazole) was “substrates”, the “AUC, times higher after CYP3A4 inhibition by ketoconazole” value ([1]; vs THC/CBD spray alone) was 3.8 times and the “Cmax, times higher after CYP3A4 inhibition by ketoconazole” value ([1]; vs THC/CBD spray alone) was 3.1 times. The “Geometric mean ratio of AUC(0-inf)” value [2, 8] was 0.131, the “Geometric mean ratio of AUC(0-t)” value [2, 8] was 0.099 and the “Geometric mean ratio of Cmax” value [2, 8] was 0.140. The “AUC(0-inf)” value [2, 9] was 2.78 (0.68)^c h*ng/mL, the “AUC(0-t)” value [2, 9] was 1.84 (0.79) h*ng/mL and the Cmax [2, 9] was 0.45 (0.18) ng/mL. The Kel [2, 9] was 0.189 (0.074)^c h^-1, the t½ [2, 9] was 4.19 (1.62)^c h and the Tmax [2, 9] was 1.75 (1.50-2.57) h. The “AUC(0-inf)” value [2, 10] was 21.59 (8.76) h*ng/mL, the “AUC(0-t)” value [2, 10] was 18.61 (7.81) h*ng/mL and the Cmax [2, 10] was 3.38 (1.95) ng/mL. The Kel [2, 10] was 0.083 (0.042) h^-1, the t½ [2, 10] was 9.88 (3.89) h and the Tmax [2, 10] was 1.38 (0.50-6.02) h. For the same substance, the “% change in mean t1/2” value [2, 11] was -58%, the “% change in median Tmax” value [2, 11] was “+27%” and the “Change in mean Cmax” value ([2]; THC/CBD spray with rifampicin vs THC/CBD spray alone) was -87%. The “Geometric mean ratio of AUC(0-inf)” value [3, 12] was 0.869, the “Geometric mean ratio of AUC(0-t)” value [3, 12] was 0.869 and the “Geometric mean ratio of Cmax” value [3, 12] was 0.866. The “AUC(0-inf)” value [3, 13] was 19.80 (9.74) h*ng/mL, the “AUC(0-t)” value [3, 13] was 17.69 (9.05) h*ng/mL and the Cmax [3, 13] was 2.84 (1.40) ng/mL. For the same substance, the Kel [3, 13] was 0.095 (0.029) h^-1, the t½ [3, 13] was 7.98 (2.82) h and the Tmax [3, 13] was 1.52 (1.23-2.50) h. The “AUC(0-inf)” value [3, 14] was 24.17 (16.47) h*ng/mL, the “AUC(0-t)” value [3, 14] was 21.52 (14.76) h*ng/mL and the Cmax [3, 14] was 3.48 (2.27) ng/mL. The Kel [3, 14] was 0.114 (0.062) h^-1, the t½ [3, 14] was 7.30 (2.87) h and the Tmax [3, 14] was 2.00 (1.25-3.02) h. For the same substance, the “Plasma concentrations and PK parameters compared with THC/CBD spray alone” value ([3]; THC/CBD spray at end of 6-day omeprazole dosing) was “marginally lower”, the “% change in Tmax” value [3, 15] was -24% and the “% change in t1/2” value [3, 15] was “+9%”. For the same substance, the “Substrate for the isoenzyme CYP2C19 (conclusion from omeprazole interaction)” value ([3]; at the clinically relevant dose of THC/CBD spray investigated) was “not substrates”, the “Cmax and AUC % Co-efficient of Variation (CV%) range” value ([3]; THC/CBD spray alone, omeprazole group) was 48-69% and the “Cmax and AUC % Co-efficient of Variation (CV%) range” value ([3]; THC/CBD spray in combination with omeprazole) was 40-67%.

— publication PMC3671111, “A Phase I, open-label, randomized, crossover study in three parallel groups to evaluate the effect of Rifampicin, Ketoconazole, and Omeprazole on the pharmacokinetics of THC/CBD oromucosal spray in healthy volunteers” (SpringerPlus, 2013)
